Data on 18 compounds can be found in PubChem BioAssay AID248 (DTP/NCI, 2004).

The experiment has as its system L1210 leukemia ip in BDF1 mice, survival T/C. In words: NCI In Vivo Anticancer Drug Screen. Data for tumor model L1210 Leukemia (intraperitoneal) in B6D2F1 (BDF1) mice. As to conditions: endpoint: mean survival time, higher = longer survival. Summed up: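 Survival endpoint. Drug-treated group vs vehicle group, expressed as T divided by C. Tumor passaged by transplantation.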

Setting [1] is: dose: 400.0 mg/kg/injection, schedule: Q01DX001 (ip), vehicle: saline.
The mark [2] stands for this setting: dose: 50.0 mg/kg/injection, schedule: Q04DX002 (ip), vehicle: Klucel (hydroxypropylcellulose) (HPC).
Setting [3] is: dose: 100.0 mg/kg/injection, schedule: Q04DX002 (ip), vehicle: Klucel (hydroxypropylcellulose) (HPC).
The mark [4] stands for this setting: dose: 200.0 mg/kg/injection, schedule: Q04DX002 (ip), vehicle: Klucel (hydroxypropylcellulose) (HPC).
Setting [5] is: dose: 400.0 mg/kg/injection, schedule: Q04DX002 (ip), vehicle: Klucel (hydroxypropylcellulose) (HPC).
[6] abbreviates: dose: 100.0 mg/kg/injection, schedule: Q01DX001 (ip), vehicle: saline.
Setting [7] is: dose: 200.0 mg/kg/injection, schedule: Q01DX001 (ip), vehicle: saline.
[8] abbreviates: dose: 100.0 mg/kg/injection, schedule: Q01DX001 (ip), vehicle: saline with Tween-80.
Where [9] appears, read: dose: 200.0 mg/kg/injection, schedule: Q01DX001 (ip), vehicle: saline with Tween-80.
The mark [10] stands for this setting: dose: 400.0 mg/kg/injection, schedule: Q01DX001 (ip), vehicle: saline with Tween-80.
Setting [11] is: dose: 100.0 mg/kg/injection, schedule: Q04DX003 (ip), vehicle: Klucel (hydroxypropylcellulose) (HPC).
Where [12] appears, read: dose: 200.0 mg/kg/injection, schedule: Q04DX003 (ip), vehicle: Klucel (hydroxypropylcellulose) (HPC).
Setting [13] is: dose: 400.0 mg/kg/injection, schedule: Q04DX003 (ip), vehicle: Klucel (hydroxypropylcellulose) (HPC).
Setting [14] is: dose: 100.0 mg/kg/injection, schedule: Q01DX009 (ip), vehicle: Klucel (hydroxypropylcellulose) (HPC).
The mark [15] stands for this setting: dose: 200.0 mg/kg/injection, schedule: Q01DX009 (ip), vehicle: Klucel (hydroxypropylcellulose) (HPC).
Setting [16] is: dose: 400.0 mg/kg/injection, schedule: Q01DX009 (ip), vehicle: Klucel (hydroxypropylcellulose) (HPC).

Several values for one entry are separate records, joined by “and”; a condition that tells them apart may be missing. Identical values can stand only once. Toxic doses and inconclusive results are not listed.

As for `N#CCCC(C#N)(C#N)CCC#N`, the T/C runs as follows: (dose: 175.0 mg/kg/injection, schedule: Q01DX001 (ip), vehicle: saline) 97 % of control; (dose: 265.0 mg/kg/injection, schedule: Q01DX001 (ip), vehicle: saline) 100 % of control; under setting [1], 96 % of control; (dose: 600.0 mg/kg/injection, schedule: Q01DX001 (ip), vehicle: saline) 91 % of control.

For the compound `CC1(C)CNC2OC1NCC2(C)C`, the T/C was 112 % of control (dose: 100.0 mg/kg/injection, schedule: Q01DX001 (ip), vehicle: saline sonified); 89 % of control (dose: 200.0 mg/kg/injection, schedule: Q01DX001 (ip), vehicle: saline sonified); 95 % of control (dose: 400.0 mg/kg/injection, schedule: Q01DX001 (ip), vehicle: saline sonified).

For the compound `O/N=C1\CCc2ccccc21`, the T/C is, setting by setting: under setting [2], 100 % of control; under setting [3], 92 % of control; under setting [4], 96 % of control.

On to `COC(=O)C1OCOC2C(COS(=O)(=O)c3ccc(C)cc3)OCOC12` (configuration not stated), for which the T/C was 100 % of control under setting [2]; 98 % of control and 111 % of control under setting [3]; 95 % of control and 101 % of control under setting [4]; 101 % of control under setting [5].

For `Cc1cc(C)c2nc(-c3ccc(F)cc3)cc(C(=O)O)c2c1`, the T/C reads like this: (dose: 50.0 mg/kg/injection, schedule: Q04DX003 (ip), vehicle: saline) 97 % of control; under setting [6], 101 % of control; (dose: 100.0 mg/kg/injection, schedule: Q04DX003 (ip), vehicle: saline) 97 % of control; under setting [7], 93 % of control; (dose: 200.0 mg/kg/injection, schedule: Q04DX003 (ip), vehicle: saline) 96 % of control.

Regarding `O=C1NC(=O)C(F)C(O)N1` (configuration not stated), the T/C (dose: 5.0 mg/kg/injection, schedule: Q01DX001 (ip), vehicle: saline) was 102 % of control; the T/C (dose: 10.0 mg/kg/injection, schedule: Q01DX001 (ip), vehicle: saline) was 101 % of control; the T/C (dose: 20.0 mg/kg/injection, schedule: Q01DX001 (ip), vehicle: saline) was 96 % of control; the T/C (dose: 40.0 mg/kg/injection, schedule: Q01DX001 (ip), vehicle: saline) is 101 % of control; the T/C (dose: 80.0 mg/kg/injection, schedule: Q01DX001 (ip), vehicle: saline) was 108 % of control.

For the compound `Cc1ccc(S(=O)(=O)OC2CCC(=O)C3CC4(CCC23)OCCO4)cc1` (configuration not stated), the T/C by setting is: under setting [8], 91 % of control; under setting [9], 87 % of control; under setting [10], 95 % of control.

Regarding `NS(=O)(=O)c1cc(Cl)ccc1Cl`, the T/C runs as follows: under setting [8], 88 % of control; under setting [9], 94 % of control; under setting [10], 91 % of control.

As to `BrCCN1CCCCC1`, the T/C is 104 % of control and 115 % of control (dose: 1.56 mg/kg/injection, schedule: Q01DX009 (ip), vehicle: saline); 104 % of control and 112 % of control (dose: 3.13 mg/kg/injection, schedule: Q01DX009 (ip), vehicle: saline); 101 % of control and 102 % of control (dose: 6.25 mg/kg/injection, schedule: Q01DX009 (ip), vehicle: saline); 108 % of control (dose: 12.5 mg/kg/injection, schedule: Q01DX001 (ip), vehicle: saline); 98 % of control and 106 % of control (dose: 12.5 mg/kg/injection, schedule: Q04DX002 (ip), vehicle: saline); 91 % of control (dose: 12.5 mg/kg/injection, schedule: Q04DX003 (ip), vehicle: saline). Further, the T/C is, setting by setting: (dose: 25.0 mg/kg/injection, schedule: Q01DX001 (ip), vehicle: saline) 105 % of control; (dose: 25.0 mg/kg/injection, schedule: Q04DX002 (ip), vehicle: saline) 106 % of control; (dose: 25.0 mg/kg/injection, schedule: Q04DX003 (ip), vehicle: saline) 96 % of control; (dose: 50.0 mg/kg/injection, schedule: Q04DX002 (ip), vehicle: saline) 104 % of control.

Consider `CCOC(=O)C(C(=O)OCC)C1c2ccccc2-c2ccccc21`, for which the T/C reads like this: under setting [11], 102 % of control; under setting [12], 96 % of control; under setting [13], 100 % of control.

Regarding `O=C(Cc1ccccc1)c1ccc(O)cc1`, the T/C by setting is: under setting [11], 102 % of control; under setting [12], 102 % of control; under setting [13], 88 % of control.

As for `Cc1ccc(I)cc1NCN1C(=O)c2ccccc2C1=O`, the T/C was 100 % of control (dose: 100.0 mg/kg/injection, schedule: Q04DX002 (ip), vehicle: saline with Tween-80); 107 % of control (dose: 200.0 mg/kg/injection, schedule: Q04DX002 (ip), vehicle: saline with Tween-80); 104 % of control (dose: 400.0 mg/kg/injection, schedule: Q04DX002 (ip), vehicle: saline with Tween-80).

In the case of `CCOC(=O)C(C(=O)OCC)C(CC(=O)c1ccccc1)c1ccccc1` (configuration not stated), the T/C runs as follows: under setting [14], 98 % of control; under setting [15], 93 % of control; under setting [16], 94 % of control.

With `CCc1ccccc1NC(=O)C(c1ccccc1)c1ccccc1`, the T/C is, setting by setting: under setting [14], 100 % of control; under setting [11], 100 % of control; under setting [15], 105 % of control; under setting [12], 93 % of control; under setting [16], 96 % of control; under setting [13], 90 % of control.

On to `CCC1CN2C(=N1)c1ccccc1-c1cc(Cl)ccc12` (configuration not stated), for which the T/C by setting is: (dose: 6.25 mg/kg/injection, schedule: Q01DX009 (ip), vehicle: suspension in saline) 102 % of control; (dose: 10.0 mg/kg/injection, schedule: Q01DX001 (ip), vehicle: Klucel (hydroxypropylcellulose) (HPC)) 103 % of control; (dose: 10.0 mg/kg/injection, schedule: Q01DX009 (ip), vehicle: Klucel (hydroxypropylcellulose) (HPC)) 90 % of control; (dose: 12.5 mg/kg/injection, schedule: Q01DX009 (ip), vehicle: suspension in saline) 102 % of control; (dose: 20.0 mg/kg/injection, schedule: Q01DX001 (ip), vehicle: Klucel (hydroxypropylcellulose) (HPC)) 114 % of control; (dose: 20.0 mg/kg/injection, schedule: Q01DX009 (ip), vehicle: Klucel (hydroxypropylcellulose) (HPC)) 90 % of control. Moreover, the T/C by setting is: (dose: 20.0 mg/kg/injection, schedule: Q01DX009 (ip), vehicle: saline) 111 % of control; (dose: 20.0 mg/kg/injection, schedule: Q04DX002 (ip), vehicle: saline) 114 % of control; (dose: 20.0 mg/kg/injection, schedule: Q04DX003 (ip), vehicle: Klucel (hydroxypropylcellulose) (HPC)) 88 % of control; (dose: 25.0 mg/kg/injection, schedule: Q01DX009 (ip), vehicle: suspension in saline) 110 % of control; (dose: 40.0 mg/kg/injection, schedule: Q01DX001 (ip), vehicle: Klucel (hydroxypropylcellulose) (HPC)) 108 % of control; (dose: 40.0 mg/kg/injection, schedule: Q04DX002 (ip), vehicle: saline) 118 % of control. Besides, the T/C was 88 % of control (dose: 40.0 mg/kg/injection, schedule: Q04DX003 (ip), vehicle: Klucel (hydroxypropylcellulose) (HPC)); 188 % of control (dose: 80.0 mg/kg/injection, schedule: Q01DX009 (ip), vehicle: saline); 122 % of control (dose: 80.0 mg/kg/injection, schedule: Q04DX002 (ip), vehicle: saline).

As to `Cn1cnc2cc(N=Cc3ccc(N(CCCl)CCCl)cc3F)ccc21`, the T/C is, setting by setting: under setting [3], 104 % of control; under setting [4], 101 % of control; under setting [5], 97 % of control.

`N#Cc1c(SCC(=O)O)nsc1SCC(=O)O`: the T/C (dose: 100.0 mg/kg/injection, schedule: Q04DX002 (ip), vehicle: gum acacia) is 97 % of control; the T/C (dose: 200.0 mg/kg/injection, schedule: Q04DX002 (ip), vehicle: gum acacia) is 94 % of control; the T/C (dose: 400.0 mg/kg/injection, schedule: Q04DX002 (ip), vehicle: gum acacia) was 100 % of control.

For `CC(=O)Nc1snc(C)c1[N+](=O)[O-]`, the T/C is 107 % of control under setting [6], 103 % of control under setting [7] and 103 % of control under setting [1].
